The values below come from ChEMBL document CHEMBL1125922, “Peptide leukotrienes: current status of research” (J Med Chem, 1991).

Test [1] addresses T1, Cysteinyl leukotriene receptor 1 (Cavia porcellus, UniProt Q2NNR5).
T1 sequence (Q2NNR5 whole entry): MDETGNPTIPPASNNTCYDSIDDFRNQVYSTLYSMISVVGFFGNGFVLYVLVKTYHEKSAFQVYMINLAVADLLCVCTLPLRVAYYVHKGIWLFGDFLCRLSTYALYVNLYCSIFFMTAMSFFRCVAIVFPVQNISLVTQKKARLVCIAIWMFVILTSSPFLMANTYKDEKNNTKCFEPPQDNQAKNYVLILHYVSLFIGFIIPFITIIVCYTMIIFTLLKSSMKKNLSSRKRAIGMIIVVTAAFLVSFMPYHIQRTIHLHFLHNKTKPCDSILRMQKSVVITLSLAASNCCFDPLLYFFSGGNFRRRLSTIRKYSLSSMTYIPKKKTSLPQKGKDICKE
The experiment in a line: Compound was evaluated for its ability to displace [3H]LTD4 from Cysteinyl leukotriene D4 receptor in guinea pig lung membranes. Format: cell membranes, Membrane.

For test [2], the species on record is Cavia porcellus. The experiment in a line: (§1) Antagonistic activity against LTD4 induced contraction in guinea pig trachea. Format: functional.
The species entered for test [3] is Cavia porcellus. The description is as §1. Format: functional, organism-based. As to conditions: for Kb: read-out: pA2 (converted).
The species entered for the next test is Homo sapiens. The experiment in a line: Antagonistic activity against LTD4 induced contraction in human bronchus. Format: functional.
Test [4] addresses T1, Cysteinyl leukotriene receptor 1. The experiment in a line: Compound was evaluated for its ability to displace [3H]LTD4 from LTD4 receptor in guinea pig lung membranes. Format: cell membranes, Membrane.
Test [5] is filed under the species Cavia porcellus. The experiment in a line: Antagonistic activity against LTD4 induced contraction in guinea pig lung parenchymal strips. Format: functional. Conditions: Lung parenchyma, read-out: pA2 (converted).
The species entered for test [6] is Cavia porcellus. The experiment in a line: Antagonistic activity against LTD4 induced contraction in guinea pig ileum. Format: functional.

With `CCCCC/C=C/C\C=C/C=C/C=C/[C@@H](Sc1ccc2c(=O)cc(C(=O)O)oc2c1)[C@H](O)CCCC(=O)O`, in test [1], the IC50 is 100 nM. As for `O=C(Nc1cccc2c(=O)cc(-c3nnn[nH]3)oc12)c1ccc(OCCCCc2ccccc2)cc1`, the pKB in the test filed under Cavia porcellus [2] stood at 7.5.

With `O=C(O)CCS[C@@H](CC(=O)O)c1ccccc1CCCCCCCCc1ccccc1`, the pKB in the test filed under Cavia porcellus [2] was 7.6. Moreover, the affinity in test [1] corresponds to a Ki of 60 nM. For `CCCCCCCCC/C=C\C=C\[C@@H](SCCC(=O)O)[C@@H](O)c1cccc(-c2nnn[nH]2)c1`, the Kb in the test listed under Cavia porcellus [3] was 7.94 nM.

Take `CCC(CC)(CC(=O)Nc1cccc(/C=C/c2nc(C3CCC3)cs2)c1)C(=O)O`: the pKB in the test listed under Homo sapiens is recorded as 9.3. As for `CCCc1c(OCCCOc2cc(NC(=O)c3nn[nH]n3)c(C)cc2Cl)ccc(C(C)=O)c1O` [CGP-35949], the Kb in the test filed under Cavia porcellus [3] is 39.8 nM. For `CCCc1c(OCC(O)COc2ccc3c(=O)cc(C(=O)O)oc3c2CCC)ccc(C(C)=O)c1O` (stereo unspecified) [FPL-55712], in the test listed under Cavia porcellus [3], the Kb was 200 nM. For the compound `COc1cc(C(=O)NS(=O)(=O)c2ccccc2)ccc1Cn1ncc2ccc(NC(=O)OC3CCCC3)cc21` [ICI-198615], the Ki in test [4] was 0.3 nM. In the test filed under Cavia porcellus [3], the Kb is 0.0794 nM.

`CCCc1c(OCCCS(=O)(=O)c2ccc(C(=O)CCC(=O)O)cc2)ccc(C(C)=O)c1O` [L-648051]: the Kb in the test listed under Cavia porcellus [3] was 50.1 nM. Consider `CCCc1c(OCCCSc2ccc([C@@H](O)[C@H](C)CC(=O)O)cc2)ccc(C(C)=O)c1O` [L-649923], for which affinity in test [4] was put at a Ki of 400 nM. Also, the Kb in the test filed under Cavia porcellus [3] was 63.1 nM.

With `CCCc1c(COc2ccc(Cc3nnn[nH]3)cc2)ccc(C(C)=O)c1O` [LY-163443], in the test filed under Cavia porcellus [2], the pKB worked out at 7.5. Still for that read-out and setting: the same measure for `CCCc1c(OCCCCc2nnn(CCCCc3nnn[nH]3)n2)ccc(C(C)=O)c1O` [LY-203647]: 6.4. On to `CN(C)C(=O)CCSC(SCCC(=O)O)c1cccc(/C=C/c2ccc3ccc(Cl)cc3n2)c1` (stereo unspecified) [MK-571], for which the pKB in the test filed under Cavia porcellus [2] came to 9.3. This compound had a Ki in test [1] of 0.2 nM. With `O=C(O)CCS[C@H](c1ccccc1CCCCCCCCc1ccccc1)[C@@H](O)C(=O)O` [POBILUKAST], the Kb in the test listed under Cavia porcellus [3] was 2.51 nM. For the compound `c1ccc(Cc2nn[nH]n2)c(COc2ccc(OCc3ccc4ccccc4n3)cc2)c1` [RG-12525], in the test listed under Cavia porcellus [5], the Kb was 3.98 nM. As for `O=S(=O)(Nc1cccc(OCc2ccc3ccccc3n2)c1)C(F)(F)F` [RITOLUKAST], in the test listed under Cavia porcellus [2], the pKB is 7.8. In turn, `CCCc1c(OCCCOc2ccc3c(c2CCC)OC(C)(CCC(=O)O)CC3=O)ccc(C(C)=O)c1O` (stereo unspecified) [SC-39070] gave a pKB in the test listed under Cavia porcellus [6] of 8.2. For the compound `O=C(O)c1ccccc1Nc1cccc(OCc2ccc3ccccc3n2)c1` [SR-2640], the pKB in the test listed under Cavia porcellus [2] was determined as 8.7. In test [4], `CCCc1c(OCCCCc2nnn[nH]2)ccc(C(C)=O)c1O` [TOMELUKAST] registered a Ki of […]. This compound also came in with a pKB in the test listed under Cavia porcellus [2] of 6.9. `CCCc1c(OCCCSc2nnc(SCC(=O)O)s2)ccc(C(C)=O)c1O` [YM-16638] had an IC50 in the test listed under Cavia porcellus [3] of 160 nM. That is a sub-micromolar value. Consider `COc1cc(C(=O)NS(=O)(=O)c2ccccc2C)ccc1Cc1cn(C)c2ccc(NC(=O)OC3CCCC3)cc12` [ZAFIRLUKAST], for which the pKB in the test listed under Cavia porcellus [2] is reported as 9.5.
